ChEMBL document CHEMBL1137703, “Predictive QSAR modeling of HIV reverse transcriptase inhibitor TIBO derivatives” (Eur J Med Chem, 2009)

Each compound was assayed against Human immunodeficiency virus type 1 reverse transcriptase (Human immunodeficiency virus 1, UniProt Q72547) (assay: Inhibition of HIV1 reverse transcriptase). Settings: not given.

| SMILES | log(1/IC50) |
| --- | --- |
| CCCN1Cc2cccc3[nH]c(=O)n(c23)CC1C (configuration not stated) | 4.22 |
| CCCN1Cc2cccc3[nH]c(=S)n(c23)CC1C (configuration not stated) | 5.78 |

The remaining lines, values ahead:

| log(1/IC50) | SMILES |
| --- | --- |
| 5.61 | CCCN1CCn2c(=S)[nH]c3cccc(c32)C1C (configuration not stated) |
| 5.66 | CC1CN(CC2CC2)Cc2cc(Cl)cc3[nH]c(=S)n1c23 (configuration not stated) |

Same assay, conditions: read-out: log(1/IC50) (converted)

| SMILES | IC50 [nM] |
| --- | --- |
| S=c1[nH]c2cc(Cl)cc3c2n1CCN1CCCCC31 (configuration not stated) | 2000 |
| CC(C)=CN1Cc2c(C(N)=O)ccc3[nH]c(=O)n(c23)C[C@@H]1C | 6350 |
| CC(C)=CN1Cc2c(Br)ccc3[nH]c(=O)n(c23)C[C@@H]1C | 47.4 |
| CCOc1ccc2[nH]c(=S)n3c2c1CN(C=C(C)C)[C@@H](C)C3 | 95.9 |
| CC(C)=CN1Cc2c(I)ccc3[nH]c(=O)n(c23)C[C@@H]1C | 87.1 |
| COc1ccc2c3c1[nH]c(=O)n3C[C@H](C)N(C=C(C)C)C2 | 6610 |
| CC(C)=CN1CCn2c(=S)[nH]c3cc(Cl)cc(c32)C1 | 162 |
| C=C(C)N1Cc2cccc3[nH]c(=O)n(c23)CC1C (configuration not stated) | 34700 |
| CCCN1Cc2cccc3[nH]c(=O)n(c23)C(C(C)C)C1 (configuration not stated) | 74100 |
| CC(C)=CN1CCn2c(=S)[nH]c3ccc(Cl)c(c32)C1 | 45.7 |
| C[C@H]1Cn2c(=O)[nH]c3cc(N)cc(c32)CN1CC1CC1 | 60500 |
| CC(C)=CN1[C@H](C)Cn2c(=S)[nH]c3cc(Cl)cc(c32)[C@H]1C | 479 |
| CC(C)=CN1Cc2cccc3[nH]c(=S)n(c23)[C@@H](C)[C@H]1C (relative stereo) | 2240 |
| CC(C)=CN1CCn2c(=S)[nH]c3cc(Cl)cc(c32)C1C (configuration not stated) | 22.9 |
| CC(C)=CN1Cc2cc(F)cc3[nH]c(=S)n(c23)C[C@@H]1C | 25 |
| C=C(C)N1Cc2cccc3[nH]c(=S)n(c23)C[C@@H]1C | 26.3 |
| C=C(C)N1Cc2cccc3[nH]c(=O)n(c23)CC1C(C)C (configuration not stated) | 10000 |
| CC(C)=CN1Cc2cccc3[nH]c(=O)n(c23)C[C@@H]1C | 3310 |
| CC(C)=CN1CCn2c(=S)[nH]c3cccc(c32)C1C (configuration not stated) | 77.6 |
| C=C(CC)N1CCn2c(=O)[nH]c3cccc(c32)C1 | 37200 |
| CC(C)=CN1CCn2c(=O)[nH]c3ccc(Cl)c(c32)C1C (configuration not stated) | 145 |
| C#Cc1ccc2[nH]c(=O)n3c2c1CN(C=C(C)C)[C@@H](C)C3 | 437 |
| CC(C)=CN1Cc2c(C=O)ccc3[nH]c(=S)n(c23)C[C@@H]1C | 186 |

| SMILES | IC50 [nM] |
| --- | --- |
| CC(C)=CN1[C@H](C)Cn2c(=O)[nH]c3cc(Cl)cc(c32)[C@H]1C | 229 |
| C=C(C)N1Cc2cccc3[nH]c(=O)n(c23)CC1CC (configuration not stated) | 50100 |
| C[C@H]1Cn2c(=O)[nH]c3ccc(N(C)C)c(c32)CN1CC1CC1 | 6650 |
| C[C@H]1Cn2c(=O)[nH]c3cc(N(C)C)cc(c32)CN1CC1CC1 | 6650 |
| CC(C)=CN1CCn2c(=O)[nH]c3cccc(c32)C1 | 12600 |
| CC(C)=CN1[C@H](C)c2cccc3[nH]c(=S)n(c23)C[C@@H]1C (relative stereo) | 1150 |
| C[C@H]1Cn2c(=S)[nH]c3cc([N+](=O)[O-])cc(c32)CN1CC1CC1 | 2450 |
| C=C(C)N1CCn2c(=O)[nH]c3cccc(c32)C1 | 46800 |
| CCCN1CCn2c(=O)[nH]c3cccc(c32)C1 | 89100 |
| C[C@H]1Cn2c(=S)[nH]c3cccc(c32)CN1CC1CC1 | 60.3 |
| C/C=C1/C[C@H]2Cn3c(=S)[nH]c4cc(Cl)cc(c43)CN2C1 | 3800 |
| COc1ccc2[nH]c(=S)n3c2c1CN(C=C(C)C)[C@@H](C)C3 | 34 |
| CC(C)=CN1Cc2cccc3[nH]c(=O)n(c23)[C@@H](C)[C@H]1C (relative stereo) | 56200 |
| C[C@H]1Cn2c(=O)[nH]c3cc([N+](=O)[O-])cc(c32)CN1CC1CC1 | 33400 |
| C[C@H]1[C@H](C)n2c(=S)[nH]c3cccc(c32)CN1CC1CC1 (relative stereo) | 13500 |
| CC(C)=CN1Cc2c(C#N)ccc3[nH]c(=O)n(c23)C[C@@H]1C | 1150 |
| CC(C)=CN1CCn2c(=O)[nH]c3cccc(c32)C1C (configuration not stated) | 12000 |
| CC(C)=CN1Cc2cccc3[nH]c(=S)n(c23)CC1C (configuration not stated) | 97.7 |
| CC(C)=CN1Cc2c(C#N)ccc3[nH]c(=S)n(c23)C[C@@H]1C | 56.2 |
| C=C(C)N1Cc2cccc3[nH]c(=O)n(c23)C(C(C)C)C1 (configuration not stated) | 12600 |
| CC(C)=CN1Cc2cccc3[nH]c(=S)n(c23)[C@@H](C)[C@@H]1C (relative stereo) | 14500 |
| C=C(C)N1Cc2cc(Cl)cc3[nH]c(=S)n(c23)C(C)C1 (configuration not stated) | 676 |

Other lines, results leading:

| IC50 [nM] | SMILES |
| --- | --- |
| 1000 | CC(C)=CN1Cc2c(C)ccc3[nH]c(=O)n(c23)C[C@@H]1C |
| 10000 | S=c1[nH]c2cccc3c2n1C(Cc1ccccc1)C(Cc1ccccc1)N(CC1CC1)C3 (configuration not stated) |
| 47900 | C=C(C)N1Cc2cccc3[nH]c(=O)n(c23)C(CCC)C1 (configuration not stated) |
| 4680 | COc1ccc2c3c1[nH]c(=S)n3C[C@H](C)N(C=C(C)C)C2 |
| 5.01 | CC(C)=CN1Cc2c(Cl)ccc3[nH]c(=S)n(c23)C[C@@H]1C |
| 50100 | CCCN1Cc2cc(Cl)cc3[nH]c(=S)n(c23)C(=O)C1C (configuration not stated) |
| 1070 | CC(C)=CN1Cc2ccc(Br)c3[nH]c(=S)n(c23)C[C@@H]1C |
| 83200 | CCCN1CCn2c(=O)[nH]c3cccc(c32)C1C (configuration not stated) |
| 10000 | CC(C)=CN1Cc2cccc3[nH]c(=O)n(c23)CC1C(C)C (configuration not stated) |
| 47.9 | CC(C)=CN1Cc2c(I)ccc3[nH]c(=S)n(c23)C[C@@H]1C |
| 33.9 | C[C@H]1Cn2c(=S)[nH]c3cc(Cl)cc(c32)CN1CC1CC1 |
| 29.5 | C#Cc1ccc2[nH]c(=S)n3c2c1CN(C=C(C)C)[C@@H](C)C3 |
| 44.2 | CC(C)=CN1Cc2cccc3[nH]c(=S)n(c23)C[C@@H]1C |
| 41.7 | CC(C)=CN1[C@@H](C)Cn2c(=S)[nH]c3cccc(c32)[C@@H]1C (relative stereo) |
| 12 | CC(C)=CN1CCn2c(=S)[nH]c3ccc(Cl)c(c32)C1C (configuration not stated) |
| 5010 | CC(C)=CN1[C@@H](C)Cn2c(=O)[nH]c3cc(Cl)cc(c32)[C@@H]1C |
| 5 | CSc1ccc2[nH]c(=S)n3c2c1CN(C=C(C)C)[C@@H](C)C3 |
| 42.7 | CC(C)=CN1Cc2cc(Cl)cc3[nH]c(=S)n(c23)C[C@@H]1C |
| 25700 | CC(C)=CN1C[C@H](C)n2c(=S)[nH]c3cccc(c32)[C@H]1C (relative stereo) |
| 5.82 | CC(C)=CN1Cc2c(F)ccc3[nH]c(=S)n(c23)C[C@@H]1C |
| 162 | CC(C)=CN1CCn2c(=O)[nH]c3cc(Cl)cc(c32)C1C (configuration not stated) |
| 182 | CC(C)=CN1Cc2cc(Cl)cc3[nH]c(=O)n(c23)C[C@@H]1C |
| 13.6 | CC(C)=CN1Cc2c(C)ccc3[nH]c(=S)n(c23)C[C@@H]1C |
| 3.01 | CC(C)=CN1Cc2c(Br)ccc3[nH]c(=S)n(c23)C[C@@H]1C |
| 25.6 | CC(C)=CN1Cc2cc(Cl)c(Cl)c3[nH]c(=S)n(c23)C[C@@H]1C |
| 22900 | C=C(C)N1Cc2cccc3[nH]c(=O)n(c23)CC1(C)C |
| 70100 | C=CCN1Cc2cccc3[nH]c(=O)n(c23)C[C@@H]1C |
| 32400 | C=C(C)N1Cc2cccc3[nH]c(=O)n(c23)C(C)C1 (configuration not stated) |
